From patent publication US20220324909A1, “THERAPEUTIC PEPTIDES” (COHBAR, INC., priority 2019, published 2022) come the findings set out here.

Non-standard residues stand in square brackets, D forms with d. No end group written: not given here.

Assay [1] relates to 3T3-L1 mouse adipocytes. Nature of the assay: Free fatty acid levels in cultured 3T3-L1 mouse adipocytes and insulin dependence (Example 17). Format: cell-based. To be noted: isoproterenol 0.1 nM; for Free Fatty Acid Levels, Percent of Isoproterenol Control Activity No Insulin: peptide 10 μM alone, relative to isoproterenol treated cells; for Free Fatty Acid Levels, Percent of Isoproterenol Control Activity With Insulin: peptide 10 μM with 0.25 nM insulin, relative to 0.25 nM insulin treated cells. How it is done:
The effect of the peptides on fatty acid metabolism can be assessed using an assay to monitor free fatty acid levels produced by cultured cells such as mouse adipocytes. […] Following 3 h incubation, conditioned medium from each well was transferred to a fresh 96-well plate. […] Absorbance values were expressed as percent control activity relative to 0.1 nM isoproterenol treated cells (no insulin) for 10 μM peptide alone or 0.25 nM insulin treated cells (with insulin) for 10 μM peptide in presence of 0.25 nM insulin. […] Data are presented as averages values from 2-3 independent experiments with each data point performed in triplicate.

Assay [2] deals with H4-IIE cells. Nature of the assay: Glucose production in cultured H4-IIE cells and insulin dependence. To be noted: peptide 10 μM alone, 24 h, relative to untreated cells. Format: cell-based, rat. Here is the method: The effect of the peptides on glucose homeostasis can be assessed using an assay to monitor glucose production by cultured cells such as rat hepatocytes. […] Following 24 h incubation, conditioned medium from each well was transferred to a fresh 96-well plate. Glucose concentrations in the medium were determined using a Glucose Assay kit (Abcam; Cambridge, Mass.) according to the manufacturer's instructions; absorbance measured using a Cytation 3 plate reader at 570 nm (BioTek, Winooski, Vt.). […] Untreated cells were used as reference for maximal glucose production. […] Insulin at 800 μM was used as a modest inhibitor glucose production. […] Data are presented as averages values from 2-4 independent experiments with each data point performed in triplicate.

For assay [3], the system named is C2C12 cells. Nature of the assay: Glucose utilization in cultured C2C12 cells and insulin dependence. The class given is cell-based, mouse. To be noted: metformin 1 mM, positive control. The text has this:
The effect of the peptides on glucose homeostasis can be assessed using an assay to monitor glucose utilization by cultured cells such as mouse myotubes. […] C2C12 mouse muscle cell line was purchased from Millipore Sigma (Saint Louis, Mo.). […] Three days after plating the medium was removed and with Differentiation Medium (DMEM/low glucose (1 g/L)+2% Horse Serum+antibiotics) added. […] After 5 days of differentiation, the medium was removed from myotube cultures and replaced with Assay Medium (DMEM/low glucose (1 g/L)+antibiotics). […] Following the 5 h incubation the medium was removed and fresh Assay Medium containing compounds added; 10 μM peptide in absence or presence of 5-20 nM insulin, or 1 mM metformin as a potent stimulator of glucose utilization. […] Following 22 h incubation, conditioned medium from each well was transferred to a fresh 96-well plate. Glucose concentrations in the medium were determined using a Glucose Assay kit (Abcam; Cambridge, Mass.) according to the manufacturer's instructions; absorbance measured using a Cytation 3 plate reader at 570 nm (BioTek, Winooski, Vt.). Absorbance values were expressed as percent control activity relative to untreated treated cells (no insulin) for 10 μM peptide alone or 5-20 nM insulin treated cells (with insulin) for 10 μM peptide in presence of 5-20 nM insulin. Untreated cells were used as reference for basal glucose utilization. The relative standard deviation from plate to plate of untreated control was <10%. Metformin at 1 mM was used as a potent control for increasing glucose utilization. Glucose levels for metformin (1 mM) treatment were <10% of the untreated control value. Data are presented as averages values from 2-3 independent experiments with each data point performed in triplicate.

Consider 33 (RRLLGLVFQSLCG[dA]) [compound 33], for which, in assay [1], the “Free Fatty Acid Levels, Percent of Isoproterenol Control Activity No Insulin” value was 98% and the “Free Fatty Acid Levels, Percent of Isoproterenol Control Activity With Insulin” value is on record as 80%. Further, the “Glucose Production, Percent of Control Activity No Insulin” value in assay [2] came out at 113.8%.
Take “34 (RXMMGMVFQSLCGA; (2)..(2) Xaa is Aib (alpha-aminoisobutyric acid); (14)..(14) D-Ala) [compound 34]”: in assay [1], the “Free Fatty Acid Levels, Percent of Isoproterenol Control Activity No Insulin” value is on record as 104% and the “Free Fatty Acid Levels, Percent of Isoproterenol Control Activity With Insulin” value came to 122%. The “Glucose Production, Percent of Control Activity No Insulin” value in assay [2] is on record as 96.9%.
Consider “35 (RXLLGLVFQSLCGA; (2)..(2) Xaa is Aib (alpha-aminoisobutyric acid); (14)..(14) D-Ala) [compound 35]”, for which, in assay [1], the “Free Fatty Acid Levels, Percent of Isoproterenol Control Activity No Insulin” value worked out at 101% and the “Free Fatty Acid Levels, Percent of Isoproterenol Control Activity With Insulin” value was determined as 112%. Also, the “Glucose Production, Percent of Control Activity No Insulin” value in assay [2] was found to be 98.1%.
Regarding 38 (RRMMGMVEQSLCG[dA]) [compound 38], in assay [1], the “Free Fatty Acid Levels, Percent of Isoproterenol Control Activity No Insulin” value is 101% and the “Free Fatty Acid Levels, Percent of Isoproterenol Control Activity With Insulin” value is listed as 68%. Moreover, in assay [2], the “Glucose Production, Percent of Control Activity No Insulin” value came out at 98.5%.
With 39 (RRMMGMVFQSLEG[dA]) [compound 39], in assay [1], the “Free Fatty Acid Levels, Percent of Isoproterenol Control Activity No Insulin” value is 97% and the “Free Fatty Acid Levels, Percent of Isoproterenol Control Activity With Insulin” value stood at 67%. Further, the “Glucose Production, Percent of Control Activity No Insulin” value in assay [2] stood at 103.9%.
With 40 (RRLLGLVEQSLCG[dA]) [compound 40], in assay [1], the “Free Fatty Acid Levels, Percent of Isoproterenol Control Activity No Insulin” value is 101% and the “Free Fatty Acid Levels, Percent of Isoproterenol Control Activity With Insulin” value was determined as 76%. In assay [2], the “Glucose Production, Percent of Control Activity No Insulin” value was determined as 109.6%.
On to 41 (RRLLGLVFQSLEG[dA]) [compound 41], for which, in assay [1], the “Free Fatty Acid Levels, Percent of Isoproterenol Control Activity No Insulin” value came to 97% and the “Free Fatty Acid Levels, Percent of Isoproterenol Control Activity With Insulin” value came to 73%. In assay [2], the “Glucose Production, Percent of Control Activity No Insulin” value turned out to be 122.7%.
Consider 44 (MMGMV) [compound 44], for which, in assay [1], the “Free Fatty Acid Levels, Percent of Isoproterenol Control Activity No Insulin” value worked out at 103% and the “Free Fatty Acid Levels, Percent of Isoproterenol Control Activity With Insulin” value was 96%. Also, the “Glucose Production, Percent of Control Activity No Insulin” value in assay [2] is reported as 98.8%.
As for 45 (MMGMVF) [compound 45], in assay [1], the “Free Fatty Acid Levels, Percent of Isoproterenol Control Activity No Insulin” value came to 105% and the “Free Fatty Acid Levels, Percent of Isoproterenol Control Activity With Insulin” value is listed as 89%. The “Glucose Production, Percent of Control Activity No Insulin” value in assay [2] turned out to be 106.9%.
Take 46 (MMGMVFQ) [compound 46]: in assay [1], the “Free Fatty Acid Levels, Percent of Isoproterenol Control Activity No Insulin” value was found to be 98% and the “Free Fatty Acid Levels, Percent of Isoproterenol Control Activity With Insulin” value was found to be 104%. Moreover, in assay [2], the “Glucose Production, Percent of Control Activity No Insulin” value stood at 105.0%.
Consider 47 (MMGMVFQS) [compound 47], for which, in assay [1], the “Free Fatty Acid Levels, Percent of Isoproterenol Control Activity No Insulin” value was 101% and the “Free Fatty Acid Levels, Percent of Isoproterenol Control Activity With Insulin” value is 93%. Also, the “Glucose Production, Percent of Control Activity No Insulin” value in assay [2] amounted to 108.0%.
Take 48 (MMGMVFQSL) [compound 48]: in assay [1], the “Free Fatty Acid Levels, Percent of Isoproterenol Control Activity No Insulin” value was 92% and the “Free Fatty Acid Levels, Percent of Isoproterenol Control Activity With Insulin” value is recorded as 93%. Moreover, the “Glucose Production, Percent of Control Activity No Insulin” value in assay [2] is 110.0%.
As to 49 (MMGMVFQSLCG[dA]) [compound 49], in assay [1], the “Free Fatty Acid Levels, Percent of Isoproterenol Control Activity No Insulin” value stood at 101% and the “Free Fatty Acid Levels, Percent of Isoproterenol Control Activity With Insulin” value is recorded as 103%. In assay [2], the “Glucose Production, Percent of Control Activity No Insulin” value is on record as 120.1%.
Regarding 50 (RMMGMVF) [compound 50], in assay [1], the “Free Fatty Acid Levels, Percent of Isoproterenol Control Activity No Insulin” value is listed as 103% and the “Free Fatty Acid Levels, Percent of Isoproterenol Control Activity With Insulin” value came out at 101%. Further, the “Glucose Production, Percent of Control Activity No Insulin” value in assay [2] was 99.8%.
In the case of 51 (RMMGMVFQ) [compound 51], in assay [1], the “Free Fatty Acid Levels, Percent of Isoproterenol Control Activity No Insulin” value is 99% and the “Free Fatty Acid Levels, Percent of Isoproterenol Control Activity With Insulin” value amounted to 79%. For the same compound, in assay [2], the “Glucose Production, Percent of Control Activity No Insulin” value was determined as 106.1%.
On to 52 (RMMGMVFQS) [compound 52], for which, in assay [1], the “Free Fatty Acid Levels, Percent of Isoproterenol Control Activity No Insulin” value is 102% and the “Free Fatty Acid Levels, Percent of Isoproterenol Control Activity With Insulin” value was found to be 79%. For the same compound, in assay [2], the “Glucose Production, Percent of Control Activity No Insulin” value amounted to 108.4%.
Taken in the same sequence, the figures for 53 (RMMGMVFQSL) [compound 53] were 101%, 81% and 91.9%.
On to 54 (RMMGMVFQSLCG[dA]) [compound 54], for which, in assay [1], the “Free Fatty Acid Levels, Percent of Isoproterenol Control Activity No Insulin” value turned out to be 102% and the “Free Fatty Acid Levels, Percent of Isoproterenol Control Activity With Insulin” value turned out to be 75%. In assay [2], the “Glucose Production, Percent of Control Activity No Insulin” value is listed as 112.8%.
55 (RRMMGM) [compound 55]: in assay [1], the “Free Fatty Acid Levels, Percent of Isoproterenol Control Activity No Insulin” value is listed as 100% and the “Free Fatty Acid Levels, Percent of Isoproterenol Control Activity With Insulin” value amounted to 90%. In assay [2], the “Glucose Production, Percent of Control Activity No Insulin” value was determined as 92.6%.
Taken in the same sequence, the figures for 56 (RRMMGMV) [compound 56] were 99%, 94% and 97.1%.
Taken in the same sequence, the figures for 57 (RRMMGMVF) [compound 57] were 96%, 87% and 98.3%.
Turning to 58 (RRMMGMVFQ) [compound 58], in assay [1], the “Free Fatty Acid Levels, Percent of Isoproterenol Control Activity No Insulin” value turned out to be 110% and the “Free Fatty Acid Levels, Percent of Isoproterenol Control Activity With Insulin” value worked out at 114%. Besides, the “Glucose Production, Percent of Control Activity No Insulin” value in assay [2] amounted to 114.5%.
On the same counts, the results for 59 (RRMMGMVFQS) [compound 59] are 111%, 114% and 114.0%.
Turning to 60 (RRMMGMVFQSL) [compound 60], in assay [1], the “Free Fatty Acid Levels, Percent of Isoproterenol Control Activity No Insulin” value was 110% and the “Free Fatty Acid Levels, Percent of Isoproterenol Control Activity With Insulin” value came out at 101%. The “Glucose Production, Percent of Control Activity No Insulin” value in assay [2] turned out to be 115.9%.
For 61 (Ac-RRMMGMVFQSLCG[dA]) [compound 61], in assay [1], the “Free Fatty Acid Levels, Percent of Isoproterenol Control Activity No Insulin” value is 112% and the “Free Fatty Acid Levels, Percent of Isoproterenol Control Activity With Insulin” value is listed as 143%. For the same compound, the “Glucose Production, Percent of Control Activity No Insulin” value in assay [2] amounted to 122.7%.
On to “62 (RRMMGMVFQSLCG[dA]-NH2) [compound 62]”, for which, in assay [1], the “Free Fatty Acid Levels, Percent of Isoproterenol Control Activity No Insulin” value is 112% and the “Free Fatty Acid Levels, Percent of Isoproterenol Control Activity With Insulin” value came to 109%. Also, in assay [2], the “Glucose Production, Percent of Control Activity No Insulin” value amounted to 105.6%.
For “63 (Ac-RRMMGMVFQSLCG[dA]-NH2) [compound 63]”, in assay [1], the “Free Fatty Acid Levels, Percent of Isoproterenol Control Activity No Insulin” value worked out at 112% and the “Free Fatty Acid Levels, Percent of Isoproterenol Control Activity With Insulin” value is reported as 92%. Also, the “Glucose Production, Percent of Control Activity No Insulin” value in assay [2] was determined as 107.5%.
Consider `CC[C@H](C)[C@H](NC(=O)CNC(=O)[C@@H](NC(=O)[C@@H](NC(=O)[C@H](CCCNC(=N)N)NC(=O)[C@@H](N)CCCNC(=N)N)[C@@H](C)CC)[C@@H](C)CC)C(=O)N[C@H](C(=O)N[C@@H](Cc1ccccc1)C(=O)N[C@@H](CCC(N)=O)C(=O)N[C@@H](CO)C(=O)N[C@@H](CC(C)C)C(=O)N[C@@H](CS)C(=O)NCC(=O)N[C@H](C)C(=O)O)C(C)C` [compound 43], for which, in assay [1], the “Free Fatty Acid Levels, Percent of Isoproterenol Control Activity No Insulin” value worked out at 103% and the “Free Fatty Acid Levels, Percent of Isoproterenol Control Activity With Insulin” value was found to be 91%. In addition, in assay [2], the “Glucose Production, Percent of Control Activity No Insulin” value amounted to 115.8%.
Consider `CN(C)C(=N)N=C(N)N` [metformin, reference compound], for which, in assay [3], the “Glucose levels, % of untreated control value” is below 10%.
